Measured values published in PMC9530166, “Allosteric regulation of glycogen breakdown by the second messenger cyclic di-GMP” (Nature Communications, 2022).

Columns and labels:
His6-GlgXEC = target: T1, His6-GlgXEC (Escherichia coli, UniProt P15067); test: DRaCALA with [32P]-c-di-GMP, E. coli GlgX; assay type: binding; conditions: 15 µg E. coli His6-GlgX
T1 construct: made in house; host or cells: E. coli Rosetta (DE3), pET15b
Experimental: For DRaCALA assays, purified His6-GlgX (15 μg) was mixed with 0.5 μl undiluted [^32P]-c-di-GMP (42 nM) (Hartmann Analytic GmbH, Braunschweig) in binding buffer (25 mM Tris pH 8; 150 mM NaCl; 2.5% (v/v) glycerol; 5 mM MgCl2) and the reaction was incubated at rt for 5 min. For competition assays, 100 μM nonlabeled nucleotides were added to the samples and incubated at rt for 5 min prior to the addition of [^32P]-c-di-GMP. Reactions (10 μl) were spotted on the same nitrocellulose membrane (Roth), air dried for 10 min and analyzed via phosphorimaging.
(§1) (a) 15 µg of purified E. coli His6-GlgX
(§2) 167 or His6-Vnz25270, respectively, were mixed with 0.5 µl of [32P]-c-di-GMP (Hartmann Analytic
(§3) 168 GmbH, Braunschweig) in binding buffer (25 mM Tris pH 8.0, 150 mM NaCl, 2.5% (v/v) glycerol
(§4) 169 and 5 mM MgCl2). 10 µL of the reactions were spotted on the same nitrocellulose membrane (Roth),
(§5) 170 air dried for 10 min and analyzed by phosphorimaging. (b, c) 10 µM purified His6-Vnz25270 (b) or
(§6) 171 His6-GlgXE.coli (c) in 25 mM Tris pH 8.0, 150 mM NaCl, 2.5% (v/v) glycerol and 5 mM MgCl2 were
(§7) 172 incubated without or with (1 mM) c-di-GMP. Reactions were analyzed in a Tycho NT.6
(§8) 173 (NanoTemper Technologies) device.
(§9) (1 picture or pasted object on this page, not shown here)

His6-Vnz25270 = test: nanoDSF thermal shift assay, GlgX paralog Vnz25270; assay type: binding, Streptomyces venezuelae; conditions: 10 µM His6-Vnz25270, 1 mM c-di-GMP
Experimental: For label-free thermal shift assay experiments, 10 μM purified protein in 25 mM Tris pH 8, 150 mM NaCl, 2.5% (v/v) glycerol, and 5 mM MgCl2 was incubated without or with (1 mM) of nonlabeled c-di-GMP or c-di-AMP, respectively, at rt for 10 min. Reactions were subsequently analyzed in a Tycho NT.6 (NanoTemper Technologies) device with a 30 K/min thermal ramp and the internal fluorescence at 330 and 350 nm was recorded. Data analysis and calculation of derivatives was done using the internal evaluation features of the Tycho instrument.
as §1, §2, §3, §4, §5, §6, §7, §8, §9

His6-GlgXD342A = test: BCA reducing-end enzyme assay, GlgXD342A; assay type: biochemical, Streptomyces venezuelae; conditions: 50 µM c-di-GMP, 0.05% glycogen from rabbit, 1 µM enzyme
Experimental: Fig. 2 c-di-GMP stimulates glycogen breakdown activity of GlgX in vitro. a Bicinchoninic acid (BCA) in vitro enzyme assay. The purple copper bicinchoninate complex indicating GlgX-mediated generation of reducing ends in glycogen was quantified by photometric measurements at 562 nm. A562 values were converted into reducing ends [µM glucose equivalents] based on D-glucose as a standard. Reactions contained 0.05% (w/v) glycogen from rabbit, 1 µM GlgX and increasing concentrations of c-di-GMP (0–100 µM). Source data are provided as a Source data file. b BCA assay containing 0.05% of either glycogen from rabbit, pullulan, amylopectin from maize or amylose from potato as substrates. Where appropriate, 1 µM GlgX or 50 µM c-di-GMP were added to the reaction samples. Source data are provided as a Source data file. c BCA assay as in a with or without c-di-GMP (50 µM), 0.05% glycogen from rabbit (S) and 1 µM Vnz25270, GlgX, the active site mutants GlgXD342A, GlgXE378A, GlgXD342A+E378A, or the c-di-GMP-binding mutant variant GlgXDETR49-52 as indicated. […]
Hydrolysis of carbohydrates was assessed in vitro by measuring the accumulation of reducing sugar ends using the BCA assay[42] and D-glucose as a standard for calibration (Supplementary Fig. 11). […] 125 μl sample aliquots were transferred in duplicates to a 96 well plate and the absorbance at 562 nm was measured using a plate reader.

T1 sequence (P15067 whole entry): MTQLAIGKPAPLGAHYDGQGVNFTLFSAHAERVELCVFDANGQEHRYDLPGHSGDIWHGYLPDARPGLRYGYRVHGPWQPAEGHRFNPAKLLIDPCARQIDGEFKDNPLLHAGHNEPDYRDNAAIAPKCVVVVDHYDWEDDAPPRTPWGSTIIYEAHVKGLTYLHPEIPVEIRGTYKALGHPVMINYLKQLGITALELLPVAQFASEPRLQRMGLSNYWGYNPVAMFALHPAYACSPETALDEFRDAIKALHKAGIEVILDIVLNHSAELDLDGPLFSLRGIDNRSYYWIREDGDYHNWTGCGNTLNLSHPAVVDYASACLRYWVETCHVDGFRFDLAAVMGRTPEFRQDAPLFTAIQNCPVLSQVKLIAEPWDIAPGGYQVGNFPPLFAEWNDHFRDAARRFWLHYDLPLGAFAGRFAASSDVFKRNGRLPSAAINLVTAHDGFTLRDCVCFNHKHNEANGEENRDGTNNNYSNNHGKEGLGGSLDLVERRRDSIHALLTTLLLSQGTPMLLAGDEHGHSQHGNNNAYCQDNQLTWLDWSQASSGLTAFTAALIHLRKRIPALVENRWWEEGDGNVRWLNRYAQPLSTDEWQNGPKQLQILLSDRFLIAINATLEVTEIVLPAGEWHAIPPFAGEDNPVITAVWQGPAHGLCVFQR

Nc1nc2c(ncn2[C@@H]2O[C@@H]3CO[P@](=O)(O)O[C@H]4[C@@H](O)[C@H](n5cnc6c(=O)[nH]c(N)nc65)O[C@@H]4CO[P@](=O)(O)O[C@H]3[C@H]2O)c(=O)[nH]1 [c-di-GMP, bis-(3′−5′)-cyclic diguanosine monophosphate]
binding of [32P]-c-di-GMP in DRaCALA (His6-GlgXEC): did not detect any interactions
interaction with c-di-GMP by nanoDSF (His6-Vnz25270): did not detect any interactions
stimulation of enzyme activity by c-di-GMP (His6-GlgXD342A): could not be stimulated
